Assay in all cases: microbe, parasite or virus in culture
Format in all cases: cell-based, Staphylococcus aureus

Test [1] deals with Mupirocin-susceptible MRSA ATCC-BAA-1756 (USA300). As for the experimental part: (§1) The MICs of test compounds were determined using the microdilution method from the Clinical and Laboratory Standards Institute (CLSI) guidelines (Clinical and Laboratory Standards Institute. Methods for dilution antimicrobial susceptibility tests for bacteria that grow aerobically; approved standard—ninth edition. Document M07-A9. Vol. 32 No. 2. Wayne, Pa.: CLSI; 2012). Briefly, bacteria were grown fresh from frozen stock in Mueller Hinton 2 (MH2) agar at 37° C. After an overnight incubation, 5 bacteria colonies were selected to grow in cation-adjusted MH2 broth in a shaking incubator (140 RPM) at 37° C. Cells were grown to an optical density (OD600) of 0.15-0.16 determined using a spectrophotometer (Molecular Devices Spectra Max Plus), which corresponds to ˜1×10^8 CFU/mL. Test compounds were constituted into 4 mM DMSO stock solutions and then subjected to 2-fold serial dilution in a 96-well plate with concentrations ranging from 100 to 0.195 μM in duplicates. […] of microbial culture containing ˜1×10^6 CFU/mL of microbes in the respective broths was introduced into each well containing 50 μL of compound solution. After an overnight incubation at 35° C., (220 RPM), OD600 measurements were conducted using the microplate spectrophotometer. The MIC was defined as the lowest antibiotic or compound concentration (μM) required to inhibit bacteria growth.
(§2) The 11th well was used as the growth control well (medium with bacterial inoculums, no antibacterial) while the 12th well was the sterility control well (medium only).

In test [2] the test system is Mupirocin-resistant MRSA ATCC-BAA-1708. As for the experimental part:
as §1, §2

Test [3] has as its system Mupirocin-susceptible MRSA ATCC-BAA-2762 (EMRSA15, ST22). As for the experimental part: as §1, §2
Test [4] concerns Mupirocin-resistant MRSA ATCC-BAA-1750 (USA200). The procedure:
as §1, §2

Test [5] deals with Mupirocin-susceptible MRSA ATCC-BAA-1754 (ST45). The procedure: as §1, §2
For test [6], the system named is Mupirocin-susceptible MRSA ATCC-BAA-1681 (USA100). As for the experimental part:
as §1, §2

Test [7] relates to Mupirocin-susceptible MRSA ATCC-BAA-1707 (USA400). As for the experimental part:
as §1, §2

Test [8] relates to Mupirocin-susceptible MRSA ATCC-700699 (VISA). The procedure:
as §1, §2

For test [9], the system named is Mupirocin-susceptible MRSA ATCC-33592 (ST239). The procedure: as §1, §2
Test [10] concerns Mupirocin-resistant MRSA ATCC-BAA-1556. As for the experimental part: as §1, §2
Where [11] appears, read: Mupirocin-resistant MRSA ATCC-BAA-1556, cation-adjusted MH2 broth, overnight 35° C., OD600, read-out: MIC.

In brackets after ≈: the same amount, converted by molar mass. Read-outs that look alike come from different tables or passages of the source. Square brackets hold non-standard residues; d marks the D form. Peptide text beside a SMILES is read from it. Bip(4'-Cl) = N[C@@H](Cc1ccc(-c2ccc(Cl)cc2)cc1)C(=O)O; dBip(4'-Cl) = N[C@H](Cc1ccc(-c2ccc(Cl)cc2)cc1)C(=O)O; Bip = N[C@@H](Cc1ccc(-c2ccccc2)cc1)C(=O)O

`N=C(N)NCCCCNC(=O)[C@@H](Cc1ccc(-c2ccccc2)cc1)NC(=O)[C@@H](CCCNC(=N)N)NC(=O)[C@H](N)Cc1ccc(-c2ccccc2)cc1` [Compound 2]: the MIC in [1] (ATCC-BAA-1756, read-out: MIC) is reported as 6.25 µM (≈ 4.58 µg/mL); in [2] (ATCC-BAA-1708, read-out: MIC) it was 6.25 µM (≈ 4.58 µg/mL); in [3] (ATCC-BAA-2762, read-out: MIC) it was 6.25 µM (≈ 4.58 µg/mL); in test [4] (ATCC-BAA-1750, read-out: MIC), 6.25 µM (≈ 4.58 µg/mL); in [5] (ATCC-BAA-1754, read-out: MIC), 6.25 µM (≈ 4.58 µg/mL); in [6] (ATCC-BAA-1681, read-out: MIC) it was 6.25 µM (≈ 4.58 µg/mL). Also, the MIC is 6.25 µM (≈ 4.58 µg/mL) in [7] (ATCC-BAA-1707, read-out: MIC); 6.25 µM (≈ 4.58 µg/mL) in test [8] (Mupirocin-susceptible MRSA ATCC-700699 (VISA), read-out: MIC); 6.25 µM (≈ 4.58 µg/mL) in [9] (ATCC-33592, read-out: MIC); 12.5 µM (≈ 9.16 µg/mL) in test [10] (setting [11]).

As to `CC(C)(C)c1cc(-c2ccc(C[C@H](NC(=O)[C@H](CCCNC(=N)N)NC(=O)[C@@H](N)Cc3ccc(-c4ccccc4)cc3)C(=O)N[C@@H](CCCNC(=N)N)C(N)=O)cc2)cc(C(C)(C)C)c1` [Compound 30], the MIC in test [10] (ATCC-BAA-1556, read-out: MIC) is reported as 50 µM (≈ 44.4 µg/mL).

Take `N=C(N)NCCC[C@H](NC(=O)[C@H](Cc1ccc(-c2ccccc2)cc1)NC(=O)[C@H](CCCNC(=N)N)NC(=O)[C@@H](N)Cc1ccc(-c2ccccc2)cc1)C(N)=O` [Compound 31] (H-[Bip]R[Bip]R-NH2): in [10] (ATCC-BAA-1556, read-out: MIC), the MIC is given as 100 µM (≈ 77.6 µg/mL).

Consider `N=C(N)NCCC[C@H](NC(=O)[C@H](Cc1ccc(-c2ccccc2)cc1)NC(=O)[C@H](CCCNC(=N)N)NC(=O)[C@@H](N)Cc1ccc(-c2ccccc2)cc1)C(N)=O` [Compound 32] (H-[Bip]R[Bip]R-NH2), for which, in test [10] (ATCC-BAA-1556, read-out: MIC), the MIC amounted to 50 µM (≈ 38.8 µg/mL).

On to `N=C(N)NCCC[C@H](NC(=O)[C@H](Cc1ccc(-c2ccc(Cl)cc2)cc1)NC(=O)[C@H](CCCNC(=N)N)NC(=O)[C@@H](N)Cc1ccc(-c2ccc(Cl)cc2)cc1)C(N)=O` [Compound 33] (H-[Bip(4'-Cl)]R[Bip(4'-Cl)]R-NH2), for which the MIC turned out to be 3.125 µM (≈ 2.64 µg/mL) in test [1] (ATCC-BAA-1756, read-out: MIC); 1.56 µM (≈ 1.32 µg/mL) in [2] (ATCC-BAA-1708, read-out: MIC); 3.125 µM (≈ 2.64 µg/mL) in test [3] (ATCC-BAA-2762, read-out: MIC); 1.56 µM (≈ 1.32 µg/mL) in test [4] (ATCC-BAA-1750, read-out: MIC); 3.125 µM (≈ 2.64 µg/mL) in [5] (ATCC-BAA-1754, read-out: MIC); 3.125 µM (≈ 2.64 µg/mL) in [6] (ATCC-BAA-1681, read-out: MIC). Also, the MIC in test [7] (ATCC-BAA-1707, read-out: MIC) is recorded as 3.125 µM (≈ 2.64 µg/mL); in [8] (ATCC-700699, read-out: MIC), 3.125 µM (≈ 2.64 µg/mL); in test [9] (ATCC-33592, read-out: MIC), 3.125 µM (≈ 2.64 µg/mL); in [10] (setting [11]), 3.125 µM (≈ 2.64 µg/mL). In addition, the “improvement of bioactivity (lower MIC values) as compared to Compound 2” value in test [10] (against Mupirocin-resistant MRSA strains) is “about 4 fold”.

Consider `N=C(N)NCCC[C@@H](NC(=O)[C@H](N)Cc1ccc(-c2ccc(Cl)cc2)cc1)C(=O)N[C@H](Cc1ccc(-c2ccc(Cl)cc2)cc1)C(N)=O` [Compound 35], for which the MIC in test [10] (ATCC-BAA-1556, read-out: MIC) came out at 6.25 µM (≈ 4.3 µg/mL).

Regarding `N=C(N)NCCC[C@@H](NC(=O)[C@@H](Cc1ccc(-c2ccc(Cl)cc2)cc1)NC(=O)[C@H](N)CCCNC(N)=O)C(N)=O` [Compound 36], in [10] (ATCC-BAA-1556, read-out: MIC), the MIC is given as greater than 100 µM.

Regarding `N=C(N)NCCC[C@@H](NC(=O)[C@H](N)Cc1ccc(-c2ccc(Cl)cc2)cc1)C(N)=O` [Compound 37], in test [10] (ATCC-BAA-1556, read-out: MIC), the MIC is recorded as greater than 100 µM.

As to `NC(=O)NCCC[C@@H](N)C(=O)N[C@H](Cc1ccc(-c2ccc(Cl)cc2)cc1)C(N)=O` [Compound 38], the MIC in [10] (ATCC-BAA-1556, read-out: MIC) is listed as greater than 100 µM.

With `N=C(N)NCCC[C@@H](N)C(=O)N[C@H](Cc1ccc(-c2ccc(Cl)cc2)cc1)C(=O)N[C@H](CCCNC(=N)N)C(=O)N[C@H](Cc1ccc(-c2ccc(Cl)cc2)cc1)C(=O)N[C@H](CCCNC(=N)N)C(N)=O` [Compound 39] (H-[dR][dBip(4'-Cl)][dR][dBip(4'-Cl)][dR]-NH2), in test [10] (ATCC-BAA-1556, read-out: MIC), the MIC worked out at 3.125 µM (≈ 3.13 µg/mL).

For `N=C(N)NCCC[C@@H](NC(=O)[C@H](N)Cc1ccc(-c2ccc(Cl)cc2)cc1)C(=O)N[C@H](Cc1ccc(-c2ccc(Cl)cc2)cc1)C(=O)N[C@H](CCCNC(=N)N)C(=O)N[C@H](Cc1ccc(-c2ccc(Cl)cc2)cc1)C(N)=O` [Compound 40] (H-[dBip(4'-Cl)][dR][dBip(4'-Cl)][dR][dBip(4'-Cl)]-NH2), the MIC in test [10] (ATCC-BAA-1556, read-out: MIC) is on record as greater than 100 µM.

As to `N=C(N)NCCCCNC(=O)[C@H](Cc1ccc(-c2ccc(Cl)cc2)cc1)NC(=O)[C@H](CCCNC(=N)N)NC(=O)[C@@H](N)Cc1ccc(-c2ccc(Cl)cc2)cc1` [Compound 41], the MIC in test [10] (ATCC-BAA-1556, read-out: MIC) came to 6.25 µM (≈ 5.01 µg/mL).

Regarding `N=C(N)NCCC[C@H](NC(=O)[C@H](Cc1ccc(-c2ccc(Cl)cc2)cc1)NC(=O)[C@H](CCCNC(=N)N)NC(=O)[C@H](N)Cc1ccc(-c2ccc(Cl)cc2)cc1)C(N)=O` [Compound 42] (H-[dBip(4'-Cl)]R[Bip(4'-Cl)]R-NH2), in test [10] (ATCC-BAA-1556, read-out: MIC), the MIC is recorded as 6.25 µM (≈ 5.28 µg/mL).

As for `N=C(N)NCCC[C@H](NC(=O)[C@H](Cc1ccc(-c2ccc(Cl)cc2)cc1)NC(=O)[C@@H](CCCNC(=N)N)NC(=O)[C@@H](N)Cc1ccc(-c2ccc(Cl)cc2)cc1)C(N)=O` [Compound 43] (H-[Bip(4'-Cl)][dR][Bip(4'-Cl)]R-NH2), in [10] (ATCC-BAA-1556, read-out: MIC), the MIC is recorded as 6.25 µM (≈ 5.28 µg/mL).

`N=C(N)NCCC[C@H](NC(=O)[C@@H](Cc1ccc(-c2ccc(Cl)cc2)cc1)NC(=O)[C@H](CCCNC(=N)N)NC(=O)[C@@H](N)Cc1ccc(-c2ccc(Cl)cc2)cc1)C(N)=O` [Compound 44] (H-[Bip(4'-Cl)]R[dBip(4'-Cl)]R-NH2): in test [10] (ATCC-BAA-1556, read-out: MIC), the MIC worked out at 6.25 µM (≈ 5.28 µg/mL).

Take `N=C(N)NCCC[C@H](NC(=O)[C@@H](N)Cc1ccc(-c2ccc(Cl)cc2)cc1)C(=O)N[C@@H](Cc1ccc(-c2ccc(Cl)cc2)cc1)C(=O)N[C@H](CCCNC(=N)N)C(N)=O` [Compound 45] (H-[Bip(4'-Cl)]R[Bip(4'-Cl)][dR]-NH2): the MIC in [10] (ATCC-BAA-1556, read-out: MIC) is on record as 6.25 µM (≈ 5.28 µg/mL).

Consider `C=C[C@]1(C)C[C@@H](OC(=O)CS[C@@H]2C[C@H]3CC[C@@H](C2)N3C)[C@]2(C)[C@H](C)CC[C@]3(CCC(=O)[C@H]32)[C@@H](C)[C@@H]1O` [Retapamulin], for which the MIC in test [1] (Staphylococcus aureus), in test [2] (Staphylococcus aureus), in test [3] (Staphylococcus aureus), in test [4] (Staphylococcus aureus), in test [5] (Staphylococcus aureus) and in test [6] (Staphylococcus aureus) was no more than 0.2 µM throughout. Further, the MIC in test [7] (Staphylococcus aureus), in test [8] (Staphylococcus aureus), in test [9] (Staphylococcus aureus) and in test [10] (Staphylococcus aureus) was no more than 0.2 µM each time.

Source of the values: patent US20200157144A1, “ANTIMICROBIAL PEPTIDOMIMETICS” (priority 2017, published 2020).
